Measurements reported in patent US9346761B2, “Arginine methyltransferase inhibitors and uses thereof” (Epizyme, Inc., priority 2013, dated 2016).
Read-outs that look alike come from different tables or passages of the source.

Tests used:
[1] = tested on: mono-methyl arginine in RKO cells; assay: RKO methylation assay, In Cell Western for mono-methyl arginine and DNA content; type: cell-based; settings: Homo sapiens
[2] = target: T1, Full-length human PRMT3 (Homo sapiens, UniProt O60678); assay: PRMT3 biochemical assay (3H-SAM Flashplate, peptide substrate)
T1 construct: GST-tagged PRMT3; made in house; host or cells: E. coli BL21(DE3) Gold (pGEX-KG)
T1 sequence (O60678 with tags, fused parts or gaps): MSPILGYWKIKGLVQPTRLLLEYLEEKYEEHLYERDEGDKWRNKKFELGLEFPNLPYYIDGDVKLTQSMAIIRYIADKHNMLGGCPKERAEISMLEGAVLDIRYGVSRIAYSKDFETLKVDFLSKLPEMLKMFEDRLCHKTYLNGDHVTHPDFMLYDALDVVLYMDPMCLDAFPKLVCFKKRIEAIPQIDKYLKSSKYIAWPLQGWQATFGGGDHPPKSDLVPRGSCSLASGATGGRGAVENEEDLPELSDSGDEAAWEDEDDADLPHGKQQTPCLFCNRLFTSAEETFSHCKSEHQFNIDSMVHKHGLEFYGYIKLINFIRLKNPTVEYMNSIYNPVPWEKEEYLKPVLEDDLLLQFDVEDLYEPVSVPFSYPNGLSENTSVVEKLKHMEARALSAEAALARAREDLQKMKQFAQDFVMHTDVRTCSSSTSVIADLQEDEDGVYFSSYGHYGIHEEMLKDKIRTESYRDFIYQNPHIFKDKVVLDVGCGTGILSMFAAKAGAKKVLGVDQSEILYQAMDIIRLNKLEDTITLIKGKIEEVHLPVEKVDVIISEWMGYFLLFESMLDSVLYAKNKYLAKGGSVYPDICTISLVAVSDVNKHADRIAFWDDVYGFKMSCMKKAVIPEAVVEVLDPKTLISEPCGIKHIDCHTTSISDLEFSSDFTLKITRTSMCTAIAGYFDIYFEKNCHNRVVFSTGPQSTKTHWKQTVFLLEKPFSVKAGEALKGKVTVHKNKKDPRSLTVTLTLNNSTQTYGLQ
Source text: General Materials. S-adenosylmethionine (SAM), S-adenosylhomocysteine (SAH), bicine, Tween20, dimethylsulfoxide (DMSO), bovine skin gelatin (BSG),), isopropyl-β-D-thiogalactopyranoside (IPTG), and Tris(2-carboxyethyl)phosphine hydrochloride solution (TCEP) were purchased from Sigma-Aldrich at the highest level of purity possible. ^3H-SAM was purchase from American Radiolabeled Chemicals with a specific activity of 80 Ci/mmol. 384-well streptavidin Flashplates were purchased from PerkinElmer.
Substrates. Peptide containing the classic RMT substrate motif was synthesized with an N-terminal linker-affinity tag motif and a C-terminal amide cap by 21st Century Biochemicals. The peptide was purified by high-performance liquid chromatography (HPLC) to greater than 95% purity and confirmed by liquid chromatography mass spectrometry (LC-MS). The sequence was Biot-Ahx-[…]-amide (SEQ ID NO.:11).
Molecular Biology: : Full-length human PRMT3 (NM_005788.3) isoform 1 transcript clone was amplified from an HEK 293 cDNA library and subcloned into pGEX-KG (GE Life Sciences). The resulting construct encodes an N-terminal GST tag and a thrombin cleavage sequence ([…] […] […] […]) (SEQ ID NO.:12) fused directly to Cys 2 of PRMT3.
Protein Expression. E. coli (BL21(DE3) Gold, Stratagene) made competent by the CaCl2 method were transformed with the PRMT3 construct and ampicillin selection. Protein over-expression was accomplished by growing the PRMT3 expressing E. coli clone and inducing expression with 0.3 mM IPTG at 16° C. The culture was grown for 12 hours, harvested by centrifugation, and stored at −80° C. for purification.
Protein Purification. […] GST-tagged PRMT3 eluted with 25-400 mM phosphate in buffer C. Protein was concentrated and buffer was exchanged to 20 mM Tris, 150 mM NaCl, 5% glycerol, 5 mM β-mercaptoethanol, pH7.8 by ultrafiltration. The purity of recovered protein was 70%.
General Procedure for PRMT3 Enzyme Assays on Peptide Substrates. The assays were all performed in a buffer consisting of 20 mM Bicine (pH=7.6), 1 mM TCEP, 0.005% BSG, and 0.002% Tween 20, prepared on the day of use. Compounds in 100% DMSO (1 ul) were spotted into a polypropylene 384-well V-bottom plates (Greiner) using a Platemate Plus outfitted with a 384-channel head (Thermo Scientific). DMSO (1 ul) was added to Columns 11, 12, 23, 24, rows A-H for the maximum signal control and 1 ul of SAH, a known product and inhibitor of PRMT3, was added to columns 11, 12, 23, 24, rows I-P for the minimum signal control. A cocktail (40 ul) containing the PRMT3 enzyme was added by Multidrop Combi (Thermo-Fisher). The compounds were allowed to incubate with PRMT3 for 30 min at room temperature, then a cocktail (10 ul) containing SAM and peptide was added to initiate the reaction (final volume=51 ul). The final concentrations of the components were as follows: PRMT3 was 0.5 nM, ^3H-SAM was 100 nM, non-radiolabeled SAM was 1.8 uM, peptide was 330 nM, SAH in the minimum signal control wells was 1 mM, and the DMSO concentration was 2%. The assays were stopped by the addition of potassium chloride (10 ul) to a final concentration of 100 mM. 50 ul of the reaction in the 384-well polypropylene plate was then transferred to a 384-well Flashplate and the biotinylated peptides were allowed to bind to the streptavidin surface for at least 1 hour before being washed once with 0.1% Tween20 in a Biotek ELx405 plate washer. The plates were then read in a PerkinElmer TopCount plate reader to measure the quantity of ^3H-labeled peptide bound to the Flashplate surface, measured as disintegrations per minute (dpm) or alternatively, referred to as counts per minute (cpm).
Where dpm=disintegrations per minute, cmpd=signal in assay well, and min and max are the respective minimum and maximum signal controls.
Where top and bottom are the normally allowed to float, but may be fixed at 100 or 0 respectively in a 3-parameter fit. […]

[3] = In Cell Western, RKO cells, 72 hours, percent activation of mono-methyl arginine signal, read-out: EC30

Row | SMILES | EC30 [1, 3] [µM] | IC50 [2] [µM] | EC30 ([1]; RKO, 72 h) [µM]
1 | CN(CCN)Cc1n[nH]cc1-c1ccc(OC(F)(F)F)cc1 [Compound 105] | < 3 | 3.01 to 10 | 
2 | CN(CCN)Cc1c[nH]nc1-c1ccc(Cl)c(F)c1 [Compound 118] | < 3 | 1.01 to 3 | 
3 | COc1ccc(F)cc1-c1n[nH]cc1CN(C)CCN [Compound 160] | > 12 | > 10 | 
4 | CCn1ncc(CN(C)CCNC)c1-c1ccc(F)cc1 [Compound 7] | 3.01 to 12 | > 10 | 
5 | CC(C)Oc1ccc(-c2c[nH]nc2CN(C)CCN)cc1F [Compound 144] | < 3 | > 10 | 
6 | Cc1cccc(-c2n[nH]cc2CN(C)CCN)c1 [Compound 131] | < 3 | 3.01 to 10 | 
7 | CC(C)Oc1ccc(-c2n[nH]cc2CN(C)CCN)cc1F [Compound 97] |  | 3.01 to 10 | < 3
8 | CN(CCN)Cc1c[nH]nc1-c1ccc(C(F)(F)F)c(Cl)c1 [Compound 117] | < 3 | 1.01 to 3 | 
9 | CN(CCN)Cc1c[nH]nc1-c1cccc(Cl)c1 [Compound 122] | 3.01 to 12 | 3.01 to 10 | 
10 | Cc1ccc(F)cc1-c1n[nH]cc1CN(C)CCN [Compound 159] | 3.01 to 12 | > 10 | 
11 | CN(CCN)Cc1c[nH]nc1-c1ccc(OC2CC2)cc1 [Compound 114] | < 3 | 3.01 to 10 | 
12 | COc1ccc(-c2n[nH]cc2CN(C)CCN)c(C)c1 [Compound 155] | 3.01 to 12 | 3.01 to 10 | 
13 | CCOc1ccc(-c2n[nH]cc2CN(C)CCN)cc1 [Compound 166] | < 3 | 3.01 to 10 | 
14 | COCCn1cc(CN(C)CCN)c(-c2ccc(F)cc2)n1 [Compound 5] | > 12 | > 10 | 
15 | CN(CCN)Cc1n[nH]cc1-c1ccc(OC(F)F)cc1 [Compound 138] | < 3 | > 10 | 
16 | COc1ccc(-c2n[nH]cc2CN(C)CCN)c(C(F)(F)F)c1 [Compound 154] | > 12 | > 10 | 
17 | CN(CCN)Cc1c[nH]nc1-c1cc(F)cc(F)c1 [Compound 111] | > 12 | 3.01 to 10 | 
18 | CN(CCN)Cc1c[nH]nc1-c1ccc(F)c(Cl)c1 [Compound 124] | < 3 | 1.01 to 3 | 
19 | CC(C)Cc1ccc(-c2c[nH]nc2CN(C)CCN)cc1 [Compound 170] | < 3 | 3.01 to 10 | 
20 | CN(CCN)Cc1c[nH]nc1-c1cc(F)ccc1Cl [Compound 106] | > 12 | > 10 | 
21 | CCN(C)C(=O)c1ccc(-c2n[nH]cc2CN(C)CCN)cc1 [Compound 163] | > 12 | > 10 | 
22 | CN(CCN)Cc1c[nH]nc1-c1ccc(C(F)(F)F)cc1Cl [Compound 135] | 3.01 to 12 | > 10 | 
23 | CN(CCN)Cc1c[nH]nc1-c1ccc(Cl)cc1 [Compound 95] | < 3 | 1.01 to 3 | 
24 | CN(CCN)Cc1n[nH]cc1-c1ccc(C2CC2)cc1 [Compound 104] | 3.01 to 12 | > 10 | 
25 | Cc1cc(Cl)ccc1-c1n[nH]cc1CN(C)CCN [Compound 133] | < 3 | 3.01 to 10 | 

Row | SMILES | EC30 [1, 3] [µM] | IC50 [2] [µM] | EC30 ([1]; RKO, 72 h) [µM]
26 | Cc1cc(C#N)ccc1-c1n[nH]cc1CN(C)CCN [Compound 110] | > 12 | 3.01 to 10 | 
27 | Cc1[nH]nc(-c2ccc(F)cc2)c1CN(C)CCN [Compound 169] | > 12 | > 10 | 
28 | CC(C)CN(C)C(=O)c1ccc(-c2n[nH]cc2CN(C)CCN)cc1 [Compound 164] | > 12 | > 10 | 
29 | COc1ccc(Cl)cc1-c1n[nH]cc1CN(C)CCN [Compound 157] | > 12 | > 10 | 
30 | Cc1ccccc1-c1n[nH]cc1CN(C)CCN [Compound 161] | > 12 | > 10 | 
31 | COCCn1ncc(CN(C)CCN)c1-c1ccc(F)cc1 [Compound 6] | > 12 | > 10 | 
32 | CN(CCN1CCCC1)Cc1c[nH]nc1-c1ccc(C#N)cc1 [Compound 139] | > 12 | > 10 | 
33 | CC(=O)c1cccc(-c2n[nH]cc2CN(C)CCN)c1 [Compound 112] | > 12 | 3.01 to 10 | 
34 | COc1cc(F)ccc1-c1n[nH]cc1CN(C)CCN [Compound 151] | 3.01 to 12 | > 10 | 
35 | CN(CCN)Cc1n[nH]cc1-c1ccc(C2CCOCC2)cc1 [Compound 145] | < 3 | 3.01 to 10 | 
36 | COc1ccc(-c2n[nH]cc2CN(C)CCN)cc1 [Compound 153] | < 3 | 3.01 to 10 | 
37 | COc1ccc(-c2n[nH]cc2CN(C)CCN)c(F)c1 [Compound 107] | > 12 | 3.01 to 10 | 
38 | COc1ccc(-c2n[nH]cc2CN(C)CCN)cc1F [Compound 134] | < 3 | 3.01 to 10 | 
39 | COc1ccc(-c2n[nH]cc2CN(C)CCN)c(Cl)c1 [Compound 146] | 3.01 to 12 | 3.01 to 10 | 
40 | CN(CCN)Cc1c[nH]nc1-c1ccc(OCC(F)(F)F)cc1 [Compound 96] | < 3 | 3.01 to 10 | 
41 | CN(CCN)Cc1n[nH]cc1-c1ccc(Cl)cc1 [Compound 102] | < 3 | 3.01 to 10 | 
42 | Cc1ccc(-c2n[nH]cc2CN(C)CCN)cc1 [Compound 162] | < 3 | 3.01 to 10 | 
43 | Cc1cc(F)ccc1-c1n[nH]cc1CN(C)CCN [Compound 152] | 3.01 to 12 | 3.01 to 10 | 
44 | CCn1cc(CN(C)CCNC)c(-c2ccc(F)cc2)n1 [Compound 8] | > 12 | > 10 | 
45 | CN(CCN)Cc1c[nH]nc1-c1cccc(Cl)c1F [Compound 123] | < 3 | 3.01 to 10 | 
46 | CN(CCN)Cc1c[nH]nc1-c1ccc(F)cc1F [Compound 99] | 3.01 to 12 | > 10 | 
47 | CN(CCN)Cc1c[nH]nc1-c1ccccc1C#N [Compound 140] | > 12 | 3.01 to 10 | 
48 | CCOC(=O)c1cccc(-c2n[nH]cc2CN(C)CCN)c1 [Compound 150] | 3.01 to 12 | > 10 | 
49 | CN(CCN)Cc1c[nH]nc1-c1ccc2c(c1)NC(=O)CO2 [Compound 173] | > 12 |  | 
